In the kinase profiling compilation of Christmann-Franck et al. (2016):

How the values were obtained:
Experiment in all cases: KINOMEscan competition binding
Conditions in all cases: compound 10.0 µM
[1] = biological target: NEK5 (human) (UniProt Q6P3R8)
[2] = biological target: CAMKK1 (human) (UniProt Q8N5S9)
[3] = biological target: STK16 (human) (UniProt O75716)
[4] = biological target: MAP4K4 (human) (UniProt O95819)
[5] = biological target: MYO3B (human) (UniProt Q8WXR4)
[6] = biological target: MAPK10 (human) (UniProt P53779)
[7] = biological target: TYK2 JH1 catalytic (human) (UniProt P29597)
[8] = biological target: PKN2 (human) (UniProt Q16513)
[9] = biological target: CDK8 (human) (UniProt P49336)
[10] = biological target: PIP5K1A (human) (UniProt Q99755)
[11] = tested on: ABL1 (human), P00519 [M351T]
[12] = biological target: PKN1 (human) (UniProt Q16512)
[13] = biological target: EPHA1 (human) (UniProt P21709)
EPHA1 (human), sequence (P21709 whole entry, looked up): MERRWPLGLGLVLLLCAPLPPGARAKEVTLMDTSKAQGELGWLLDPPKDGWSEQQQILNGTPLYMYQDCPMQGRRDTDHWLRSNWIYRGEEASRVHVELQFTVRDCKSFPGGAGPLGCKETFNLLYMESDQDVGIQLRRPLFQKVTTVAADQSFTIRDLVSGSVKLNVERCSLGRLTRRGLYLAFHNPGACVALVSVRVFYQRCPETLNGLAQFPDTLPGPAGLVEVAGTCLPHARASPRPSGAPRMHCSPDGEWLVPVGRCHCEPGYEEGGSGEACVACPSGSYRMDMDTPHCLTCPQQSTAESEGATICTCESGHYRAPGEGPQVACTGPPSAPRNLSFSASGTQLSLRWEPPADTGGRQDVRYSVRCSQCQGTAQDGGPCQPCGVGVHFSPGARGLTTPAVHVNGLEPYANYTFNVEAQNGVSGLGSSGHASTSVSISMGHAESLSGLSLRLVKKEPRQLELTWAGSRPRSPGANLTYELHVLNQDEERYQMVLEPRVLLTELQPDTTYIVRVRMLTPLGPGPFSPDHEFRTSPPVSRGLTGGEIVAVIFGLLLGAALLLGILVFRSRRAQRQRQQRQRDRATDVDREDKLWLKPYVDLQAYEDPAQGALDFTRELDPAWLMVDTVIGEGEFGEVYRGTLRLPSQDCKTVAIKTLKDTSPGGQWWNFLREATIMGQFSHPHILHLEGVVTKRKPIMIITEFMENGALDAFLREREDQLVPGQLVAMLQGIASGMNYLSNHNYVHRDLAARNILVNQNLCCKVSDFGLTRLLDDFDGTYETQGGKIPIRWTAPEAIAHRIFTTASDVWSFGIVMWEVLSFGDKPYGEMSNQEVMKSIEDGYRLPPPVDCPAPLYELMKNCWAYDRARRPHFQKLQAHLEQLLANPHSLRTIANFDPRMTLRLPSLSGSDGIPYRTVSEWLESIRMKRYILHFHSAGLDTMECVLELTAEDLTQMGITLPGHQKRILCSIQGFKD

[14] = biological target: PRKAA2 (human) (UniProt P54646)
[15] = biological target: CDK3 (human) (UniProt Q00526)
[16] = biological target: CDK11B (human) (UniProt P21127)
[17] = biological target: STK4 (human) (UniProt Q13043)
[18] = biological target: FGR (human) (UniProt P09769)
[19] = biological target: CDC42BPG (human) (UniProt Q6DT37)
[20] = biological target: FGFR2 (human) (UniProt P21802)
[21] = biological target: DCLK3 (human) (UniProt Q9C098)
DCLK3 (human), sequence (Q9C098 whole entry, looked up): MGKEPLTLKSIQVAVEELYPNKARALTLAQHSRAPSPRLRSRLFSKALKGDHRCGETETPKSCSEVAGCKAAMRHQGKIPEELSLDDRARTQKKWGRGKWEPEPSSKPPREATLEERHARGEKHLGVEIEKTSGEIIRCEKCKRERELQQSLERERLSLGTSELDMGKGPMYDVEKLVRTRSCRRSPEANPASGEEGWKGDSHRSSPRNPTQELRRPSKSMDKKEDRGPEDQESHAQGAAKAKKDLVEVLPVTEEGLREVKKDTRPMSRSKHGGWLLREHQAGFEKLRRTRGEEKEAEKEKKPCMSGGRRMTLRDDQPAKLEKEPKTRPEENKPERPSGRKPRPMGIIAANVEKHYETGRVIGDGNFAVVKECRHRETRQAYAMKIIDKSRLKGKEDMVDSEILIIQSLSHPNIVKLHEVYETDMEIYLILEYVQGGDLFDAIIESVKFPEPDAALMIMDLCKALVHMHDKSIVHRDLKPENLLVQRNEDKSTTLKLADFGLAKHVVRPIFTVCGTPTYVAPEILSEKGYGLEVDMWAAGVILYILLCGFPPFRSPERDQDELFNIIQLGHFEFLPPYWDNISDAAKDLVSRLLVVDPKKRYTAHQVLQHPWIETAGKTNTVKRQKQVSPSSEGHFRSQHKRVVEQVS

[22] = biological target: PTK2B (human) (UniProt Q14289)
[23] = biological target: STK24 (human) (UniProt Q9Y6E0)
[24] = biological target: RPS6KA6 KD1 (human) (UniProt Q9UK32)
[25] = tested on: KIT (human), P10721 [D816V]
[26] = biological target: FGFR3 (human) (UniProt P22607)
[27] = biological target: TNK1 (human) (UniProt Q13470)
[28] = biological target: PRKG2 (human) (UniProt Q13237)
[29] = biological target: LIMK1 (human) (UniProt P53667)
LIMK1 (human), sequence (P53667 whole entry, looked up): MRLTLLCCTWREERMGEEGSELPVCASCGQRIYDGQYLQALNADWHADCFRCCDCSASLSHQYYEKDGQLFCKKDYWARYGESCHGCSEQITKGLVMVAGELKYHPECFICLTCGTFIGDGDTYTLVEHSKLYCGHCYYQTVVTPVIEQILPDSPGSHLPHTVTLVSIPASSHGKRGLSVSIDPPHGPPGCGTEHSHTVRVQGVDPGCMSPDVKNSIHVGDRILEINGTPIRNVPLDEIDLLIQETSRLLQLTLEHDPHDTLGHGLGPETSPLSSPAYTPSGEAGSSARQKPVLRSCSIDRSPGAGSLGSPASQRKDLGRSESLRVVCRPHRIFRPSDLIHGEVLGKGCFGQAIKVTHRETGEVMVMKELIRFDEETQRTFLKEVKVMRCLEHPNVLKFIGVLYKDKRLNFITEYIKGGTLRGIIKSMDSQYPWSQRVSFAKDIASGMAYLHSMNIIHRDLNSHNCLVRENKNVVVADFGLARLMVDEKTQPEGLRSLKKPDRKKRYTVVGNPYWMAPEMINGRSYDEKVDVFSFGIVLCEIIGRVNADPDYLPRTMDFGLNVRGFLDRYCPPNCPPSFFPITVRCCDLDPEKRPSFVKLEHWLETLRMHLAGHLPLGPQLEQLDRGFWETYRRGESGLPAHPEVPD

[30] = biological target: EPHA8 (human) (UniProt P29322)
[31] = tested on: EIF2AK4 KD2 (human), Q9P2K8 [S808G]
[32] = biological target: STK10 (human) (UniProt O94804)
[33] = biological target: CDK17 (human) (UniProt Q00537)
[34] = biological target: GAK (human) (UniProt O14976)
[35] = biological target: STK38L (human) (UniProt Q9Y2H1)
[36] = biological target: MLTK (human) (UniProt Q9NYL2)
MLTK (human), sequence (Q9NYL2 whole entry, looked up): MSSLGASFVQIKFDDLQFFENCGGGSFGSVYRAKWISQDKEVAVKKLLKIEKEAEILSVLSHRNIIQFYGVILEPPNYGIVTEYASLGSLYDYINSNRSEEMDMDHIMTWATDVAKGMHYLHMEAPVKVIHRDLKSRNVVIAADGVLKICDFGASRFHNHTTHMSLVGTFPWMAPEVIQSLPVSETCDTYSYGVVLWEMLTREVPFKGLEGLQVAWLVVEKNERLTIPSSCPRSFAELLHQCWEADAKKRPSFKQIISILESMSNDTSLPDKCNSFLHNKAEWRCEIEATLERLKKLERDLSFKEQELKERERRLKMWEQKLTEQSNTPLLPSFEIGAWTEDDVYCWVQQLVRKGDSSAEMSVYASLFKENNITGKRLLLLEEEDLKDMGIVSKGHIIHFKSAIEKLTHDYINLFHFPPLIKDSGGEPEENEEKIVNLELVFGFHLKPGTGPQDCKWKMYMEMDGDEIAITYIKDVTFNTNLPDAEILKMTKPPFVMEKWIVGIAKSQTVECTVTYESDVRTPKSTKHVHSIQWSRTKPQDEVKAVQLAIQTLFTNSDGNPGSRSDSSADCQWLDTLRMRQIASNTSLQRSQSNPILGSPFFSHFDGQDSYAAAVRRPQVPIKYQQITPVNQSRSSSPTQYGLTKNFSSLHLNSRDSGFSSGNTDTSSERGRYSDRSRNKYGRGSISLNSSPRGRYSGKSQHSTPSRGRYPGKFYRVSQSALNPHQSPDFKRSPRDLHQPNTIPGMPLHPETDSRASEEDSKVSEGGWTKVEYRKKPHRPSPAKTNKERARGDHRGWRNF

[37] = biological target: MAP4K2 (human) (UniProt Q12851)
[38] = biological target: RPS6KA4 KD2 (human) (UniProt O75676)
[39] = biological target: NTRK3 (human) (UniProt Q16288)
[40] = biological target: PRKCE (human) (UniProt Q02156)

CAMKK1 (human), sequence (Q8N5S9 whole entry, looked up): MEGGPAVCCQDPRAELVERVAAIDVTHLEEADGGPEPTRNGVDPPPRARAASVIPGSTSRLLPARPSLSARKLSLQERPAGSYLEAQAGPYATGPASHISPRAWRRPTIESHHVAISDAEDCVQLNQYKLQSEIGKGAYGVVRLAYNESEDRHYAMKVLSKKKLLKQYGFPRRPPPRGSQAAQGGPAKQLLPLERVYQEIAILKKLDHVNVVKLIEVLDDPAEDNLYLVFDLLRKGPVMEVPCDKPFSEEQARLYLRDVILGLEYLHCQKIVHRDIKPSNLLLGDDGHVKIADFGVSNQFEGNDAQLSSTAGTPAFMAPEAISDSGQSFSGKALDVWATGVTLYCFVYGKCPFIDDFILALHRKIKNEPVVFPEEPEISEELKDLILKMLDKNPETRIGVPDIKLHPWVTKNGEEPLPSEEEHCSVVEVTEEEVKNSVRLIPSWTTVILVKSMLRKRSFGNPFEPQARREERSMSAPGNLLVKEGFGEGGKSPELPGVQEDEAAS
MYO3B (human), sequence (Q8WXR4 whole entry, looked up): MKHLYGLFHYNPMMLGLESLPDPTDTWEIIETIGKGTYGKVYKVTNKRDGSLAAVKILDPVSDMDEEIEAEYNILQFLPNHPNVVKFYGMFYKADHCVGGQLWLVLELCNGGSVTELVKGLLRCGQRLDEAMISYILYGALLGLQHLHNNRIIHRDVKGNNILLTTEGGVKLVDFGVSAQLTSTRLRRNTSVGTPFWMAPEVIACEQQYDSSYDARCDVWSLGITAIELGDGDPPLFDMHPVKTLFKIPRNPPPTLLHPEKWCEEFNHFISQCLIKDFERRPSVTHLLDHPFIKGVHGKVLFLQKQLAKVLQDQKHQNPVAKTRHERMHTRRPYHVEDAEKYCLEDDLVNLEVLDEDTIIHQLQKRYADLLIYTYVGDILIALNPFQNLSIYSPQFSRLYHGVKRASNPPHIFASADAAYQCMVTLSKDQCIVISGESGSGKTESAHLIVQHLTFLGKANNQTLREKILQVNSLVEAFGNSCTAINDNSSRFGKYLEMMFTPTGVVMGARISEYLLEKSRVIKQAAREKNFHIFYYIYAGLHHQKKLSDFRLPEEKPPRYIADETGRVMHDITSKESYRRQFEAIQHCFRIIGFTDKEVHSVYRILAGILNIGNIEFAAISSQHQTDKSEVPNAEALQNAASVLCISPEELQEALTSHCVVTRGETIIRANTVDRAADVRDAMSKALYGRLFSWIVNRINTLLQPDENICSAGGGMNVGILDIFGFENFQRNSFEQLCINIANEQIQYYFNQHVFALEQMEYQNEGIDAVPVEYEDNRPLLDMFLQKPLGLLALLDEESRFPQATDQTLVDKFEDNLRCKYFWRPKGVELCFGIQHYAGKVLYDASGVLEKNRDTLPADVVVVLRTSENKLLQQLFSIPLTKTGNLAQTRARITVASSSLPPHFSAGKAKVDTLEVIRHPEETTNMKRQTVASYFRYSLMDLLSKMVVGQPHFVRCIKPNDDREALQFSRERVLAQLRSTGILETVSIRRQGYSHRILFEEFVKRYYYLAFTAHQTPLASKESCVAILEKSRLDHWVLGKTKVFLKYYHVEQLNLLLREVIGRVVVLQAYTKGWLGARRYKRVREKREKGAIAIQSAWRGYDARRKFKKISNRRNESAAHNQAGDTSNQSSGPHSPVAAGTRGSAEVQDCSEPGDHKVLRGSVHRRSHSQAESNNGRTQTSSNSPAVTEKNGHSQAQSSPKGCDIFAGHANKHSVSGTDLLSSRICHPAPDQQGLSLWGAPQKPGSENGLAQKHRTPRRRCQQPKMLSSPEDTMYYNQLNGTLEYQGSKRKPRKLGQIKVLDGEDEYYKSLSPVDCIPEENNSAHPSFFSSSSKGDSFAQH

Structure (SMILES) | kinase still bound, per cent of control [1] [%] | kinase still bound, per cent of control [2] [%] | kinase still bound, per cent of control [3] [%] | kinase still bound, per cent of control [4] [%] | kinase still bound, per cent of control [5] [%] | kinase still bound, per cent of control [6] [%] | kinase still bound, per cent of control [7] [%] | kinase still bound, per cent of control [8] [%] | kinase still bound, per cent of control [9] [%] | kinase still bound, per cent of control [10] [%] | kinase still bound, per cent of control [11] [%] | kinase still bound, per cent of control [12] [%] | kinase still bound, per cent of control [13] [%] | kinase still bound, per cent of control [14] [%] | kinase still bound, per cent of control [15] [%] | kinase still bound, per cent of control [16] [%] | kinase still bound, per cent of control [17] [%] | kinase still bound, per cent of control [18] [%] | kinase still bound, per cent of control [19] [%] | kinase still bound, per cent of control [21] [%] | further results
O=C1Nc2ccc(I)cc2/C1=C/c1cc(Br)c(O)c(Br)c1 | 87 | 7.6 | 90 | 4.2 | 8.6 | 60 | 8.2 | 99 | 62 | 19 | 77 | 89 | 98 | 100 | 90 | 100 | 52 | 86 | 91 | 100 | kinase still bound, per cent of control [20]: 59%; kinase still bound, per cent of control [22]: 81%; kinase still bound, per cent of control [23]: 97%; kinase still bound, per cent of control [24]: 51%; kinase still bound, per cent of control [25]: 79%; kinase still bound, per cent of control [26]: 84%; kinase still bound, per cent of control [27]: 100%; kinase still bound, per cent of control [28]: 83%; kinase still bound, per cent of control [29]: 100%; kinase still bound, per cent of control [30]: 100%; kinase still bound, per cent of control [31]: 78%; kinase still bound, per cent of control [32]: 100%; kinase still bound, per cent of control [33]: 87%; kinase still bound, per cent of control [34]: 1.6%; kinase still bound, per cent of control [35]: 31%; kinase still bound, per cent of control [36]: 84%; kinase still bound, per cent of control [37]: 68%; kinase still bound, per cent of control [38]: 47%; kinase still bound, per cent of control [39]: 35%; kinase still bound, per cent of control [40]: 100%
Cc1cc([C@@H](C)Nc2ccccc2C(=O)O)c2nc(N3CCOCC3)cc(=O)n2c1 | 100 | 98 | 77 | 97 | 93 | 82 | 82 | 98 | 79 | 100 | 94 | 100 | 100 | 88 | 100 | 100 | 95 | 95 | 100 | 85 | kinase still bound, per cent of control [22]: 100%; kinase still bound, per cent of control [23]: 100%; kinase still bound, per cent of control [24]: 71%; kinase still bound, per cent of control [25]: 81%; kinase still bound, per cent of control [26]: 83%; kinase still bound, per cent of control [27]: 100%; kinase still bound, per cent of control [28]: 98%; kinase still bound, per cent of control [29]: 100%; kinase still bound, per cent of control [30]: 96%; kinase still bound, per cent of control [31]: 100%; kinase still bound, per cent of control [32]: 100%; kinase still bound, per cent of control [33]: 100%; kinase still bound, per cent of control [34]: 75%; kinase still bound, per cent of control [35]: 94%; kinase still bound, per cent of control [36]: 100%; kinase still bound, per cent of control [37]: 56%; kinase still bound, per cent of control [38]: 100%; kinase still bound, per cent of control [39]: 98%; kinase still bound, per cent of control [40]: 100%
CCC(=O)N1CCN(c2ccc(-n3c(=O)ccc4cnc5ccc(-c6cnc7ccccc7c6)cc5c43)cc2C(F)(F)F)CC1 | 5.8 | 80 | 18 | 5.2 | 100 | 31 | 70 | 65 | 4.6 | 89 | 100 | 92 | 62 | 74 | 100 | 97 | 7.6 | 78 | 1.6 | 97 | kinase still bound, per cent of control [20]: 55%; kinase still bound, per cent of control [22]: 100%; kinase still bound, per cent of control [23]: 100%; kinase still bound, per cent of control [24]: 66%; kinase still bound, per cent of control [26]: 42%; kinase still bound, per cent of control [27]: 6.8%; kinase still bound, per cent of control [28]: 78%; kinase still bound, per cent of control [29]: 15%; kinase still bound, per cent of control [30]: 71%; kinase still bound, per cent of control [31]: 99%; kinase still bound, per cent of control [32]: 79%; kinase still bound, per cent of control [33]: 97%; kinase still bound, per cent of control [34]: 57%; kinase still bound, per cent of control [35]: 94%; kinase still bound, per cent of control [36]: 22%; kinase still bound, per cent of control [37]: 35%; kinase still bound, per cent of control [38]: 100%; kinase still bound, per cent of control [39]: 100%; kinase still bound, per cent of control [40]: 86%
